pIC50: −log10 of the molar value.
Columns and labels:
[1] = target: T1, CYCLIN K (nuclear staining in CAL-120 cells) (Homo sapiens, UniProt O75909); assay: CYCLIN K nuclear protein level: immunofluorescence high content analysis (CAL-120); format: cell-based; conditions: 24 h, 50% reduction of nuclear CCNK staining intensity, median, read-out: CYCLIN K degradation IF, DC50-[mol/l] (median)
T1 construct: endogenous in cells; host or cells: CAL-120 human breast cancer cells (DSMZ ACC 459)
Procedure, shortened: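 CAL-120 breast cancer cells treated in dose-response for 24 h at 37 °C, PFA-fixed and immunostained for cyclin K with Hoechst counterstain. Confocal imaging quantified nuclear intensity; DC50 is the concentration giving 50% reduction of nuclear CCNK staining, normalized to DMSO and control.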

[2] = system: CAL-120, human breast adenocarcinoma cells; assay: Proliferation assay CAL-120 (crystal violet, 4 days); format: cell-based; conditions: Homo sapiens, CAL-120, 96 h, CAL-120 cells, median, read-out: Prolif-CAL-120, IC50-[mol/l] (median)
Procedure, shortened: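 Following a 24 h attachment in 10% fetal calf serum medium, cells receive test substance over 0.01-10 µmol/L for 4 days. Dye retained by fixed cells is eluted and read at 595 nm; cell number change is referenced to day-0 and untreated wells.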

[3] = target: CDK12/CycK (Homo sapiens, UniProt Q9NYV4); assay: CDK12/CycK high ATP kinase assay (TR-FRET, 2 mM ATP); format: biochemical; conditions: 2 mM ATP (high ATP); median; read-out: CDK12/CyclinK, 2 mM ATP (high ATP), IC50-[mol/l] (median)
Procedure, shortened: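 His-tagged human CDK12/CycK (~0.75 nM) pre-incubated 15 min with compound, then 60 min at 22 °C with 2 mM ATP and 1 µM biotinylated peptide (HEPES pH 7.5, 20 mM MgCl2). EDTA stop; phospho-Ser62 antibody/Eu anti-rabbit and streptavidin-XL665 TR-FRET, 665/620 nm ratio normalised to give IC50.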

CDK12/CycK, sequence (Q9NYV4 with tags, fused parts or gaps): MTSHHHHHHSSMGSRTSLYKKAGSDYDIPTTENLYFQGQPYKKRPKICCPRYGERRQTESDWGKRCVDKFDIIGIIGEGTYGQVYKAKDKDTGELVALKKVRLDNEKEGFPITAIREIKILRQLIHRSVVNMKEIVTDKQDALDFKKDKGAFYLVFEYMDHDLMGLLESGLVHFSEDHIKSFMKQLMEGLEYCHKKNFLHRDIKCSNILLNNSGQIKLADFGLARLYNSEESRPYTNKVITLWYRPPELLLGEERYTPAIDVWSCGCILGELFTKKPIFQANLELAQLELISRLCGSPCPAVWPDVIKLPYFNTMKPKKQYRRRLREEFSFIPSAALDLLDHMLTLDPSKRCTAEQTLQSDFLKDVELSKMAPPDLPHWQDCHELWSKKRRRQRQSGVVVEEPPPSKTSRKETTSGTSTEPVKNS
CDK12/CycK, sequence (O75909 1-300 partner limits assumed): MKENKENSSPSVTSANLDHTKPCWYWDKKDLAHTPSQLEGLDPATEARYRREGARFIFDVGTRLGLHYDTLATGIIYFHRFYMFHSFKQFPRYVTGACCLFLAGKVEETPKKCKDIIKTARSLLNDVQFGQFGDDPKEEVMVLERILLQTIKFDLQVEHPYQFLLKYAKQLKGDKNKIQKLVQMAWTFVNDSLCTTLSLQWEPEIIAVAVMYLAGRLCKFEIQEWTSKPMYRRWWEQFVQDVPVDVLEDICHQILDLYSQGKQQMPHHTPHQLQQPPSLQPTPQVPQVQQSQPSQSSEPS
T1 sequence (O75909 whole entry): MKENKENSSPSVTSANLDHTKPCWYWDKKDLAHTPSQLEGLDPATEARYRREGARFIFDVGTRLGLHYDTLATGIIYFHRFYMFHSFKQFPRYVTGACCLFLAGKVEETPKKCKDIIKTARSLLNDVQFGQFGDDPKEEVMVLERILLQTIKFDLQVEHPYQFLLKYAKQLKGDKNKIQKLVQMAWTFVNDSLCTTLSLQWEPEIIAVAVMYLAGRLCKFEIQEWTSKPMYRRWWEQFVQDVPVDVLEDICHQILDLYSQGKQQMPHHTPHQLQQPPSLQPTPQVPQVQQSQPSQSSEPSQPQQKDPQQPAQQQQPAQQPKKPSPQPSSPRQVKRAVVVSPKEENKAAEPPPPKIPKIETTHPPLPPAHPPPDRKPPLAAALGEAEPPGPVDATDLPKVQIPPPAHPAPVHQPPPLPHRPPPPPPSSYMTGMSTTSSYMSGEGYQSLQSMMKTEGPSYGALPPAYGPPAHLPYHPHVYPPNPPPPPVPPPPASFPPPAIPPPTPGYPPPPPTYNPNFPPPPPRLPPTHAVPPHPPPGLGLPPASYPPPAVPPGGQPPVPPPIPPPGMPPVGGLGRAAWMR
T1 sequence (Q9NYV4 whole entry partner): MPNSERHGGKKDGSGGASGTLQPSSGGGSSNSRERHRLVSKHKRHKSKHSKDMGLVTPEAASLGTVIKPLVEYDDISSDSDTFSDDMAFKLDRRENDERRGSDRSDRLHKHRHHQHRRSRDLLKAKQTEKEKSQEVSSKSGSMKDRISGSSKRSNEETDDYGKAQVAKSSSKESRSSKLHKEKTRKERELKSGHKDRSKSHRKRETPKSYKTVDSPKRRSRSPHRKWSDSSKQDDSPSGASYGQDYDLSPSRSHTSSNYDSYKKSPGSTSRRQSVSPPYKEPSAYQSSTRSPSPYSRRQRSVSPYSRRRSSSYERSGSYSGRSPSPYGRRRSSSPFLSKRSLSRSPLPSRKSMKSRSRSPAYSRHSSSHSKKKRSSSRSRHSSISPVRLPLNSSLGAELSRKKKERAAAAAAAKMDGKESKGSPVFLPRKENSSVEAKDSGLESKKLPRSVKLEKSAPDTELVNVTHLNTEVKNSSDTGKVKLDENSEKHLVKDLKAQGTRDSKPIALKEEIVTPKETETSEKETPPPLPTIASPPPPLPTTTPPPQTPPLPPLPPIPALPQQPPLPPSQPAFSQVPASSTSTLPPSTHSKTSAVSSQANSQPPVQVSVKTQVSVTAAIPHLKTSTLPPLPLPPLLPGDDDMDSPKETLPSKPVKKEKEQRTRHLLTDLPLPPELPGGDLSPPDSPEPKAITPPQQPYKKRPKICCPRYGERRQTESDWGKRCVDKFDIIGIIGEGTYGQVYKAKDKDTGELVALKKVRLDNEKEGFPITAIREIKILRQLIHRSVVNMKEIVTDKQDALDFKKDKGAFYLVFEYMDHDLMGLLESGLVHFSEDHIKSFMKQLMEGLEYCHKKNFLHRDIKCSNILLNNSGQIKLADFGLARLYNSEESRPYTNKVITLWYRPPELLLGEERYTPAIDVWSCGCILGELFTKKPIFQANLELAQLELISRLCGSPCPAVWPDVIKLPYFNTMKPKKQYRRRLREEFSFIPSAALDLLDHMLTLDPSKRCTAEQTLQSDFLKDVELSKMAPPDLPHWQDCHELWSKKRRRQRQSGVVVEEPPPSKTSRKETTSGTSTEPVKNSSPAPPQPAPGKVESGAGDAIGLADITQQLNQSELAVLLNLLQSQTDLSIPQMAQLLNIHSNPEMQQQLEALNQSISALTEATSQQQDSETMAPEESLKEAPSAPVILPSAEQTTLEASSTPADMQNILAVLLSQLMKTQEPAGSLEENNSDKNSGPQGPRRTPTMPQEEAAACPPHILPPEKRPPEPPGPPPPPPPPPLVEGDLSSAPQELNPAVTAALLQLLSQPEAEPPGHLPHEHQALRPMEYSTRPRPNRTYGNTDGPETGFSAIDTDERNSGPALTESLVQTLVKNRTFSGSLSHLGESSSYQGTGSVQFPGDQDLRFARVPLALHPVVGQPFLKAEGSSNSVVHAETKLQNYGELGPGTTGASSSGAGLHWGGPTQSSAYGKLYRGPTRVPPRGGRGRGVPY

| DC50 [1] [µM] | pIC50 [2] | pIC50 [3] | SMILES |
| --- | --- | --- | --- |
| 0.00134 | 7.85 | 5.93 | COc1cccc(-c2cnc(CNc3nc(N4CCOCC4)nc4c(Br)cnn34)[nH]2)c1 [Example 80, 8-bromo-N-{[5-(3-methoxyphenyl)-1H-imidazol-2-yl]methyl}-2-(morpholin-4-yl)pyrazolo[1,5-a][1,3,5]triazin-4-amine] |
| 0.000381 | 7.92 | 5.49 | c1ccc2[nH]c(CNc3nc(N4CCOCC4)nc4c(C5CC5)cnn34)nc2c1 [Example 92, N-[(1H-benzimidazol-2-yl)methyl]-8-cyclopropyl-2-(morpholin-4-yl)pyrazolo[1,5-a][1,3,5]triazin-4-amine] |
| 0.00504 | 7.51 | < 4.70 | CC(C)c1cnn2c(NCc3nc4ccccc4[nH]3)nc(N3CCN(C)CC3)nc12 [Example 2, N-[(1H-benzimidazol-2-yl)methyl]-2-(4-methylpiperazin-1-yl)-8-(propan-2-yl)pyrazolo[1,5-a][1,3,5]triazin-4-amine] |
| 0.00489 | 7.44 | 5.26 | Brc1cnn2c(NCc3nnc(-c4ccccc4)[nH]3)nc(N3CCCC3)nc12 [Example 64, 8-bromo-N-[(5-phenyl-4H-1,2,4-triazol-3-yl)methyl]-2-(pyrrolidin-1-yl)pyrazolo[1,5-a][1,3,5]triazin-4-amine] |
| 0.00227 | 7.49 | 5.24 | COC1CCN(c2nc(NCc3nc4ccccc4[nH]3)n3ncc(Br)c3n2)CC1 [Example 62, N-[(1H-benzimidazol-2-yl)methyl]-8-bromo-2-(4-methoxypiperidin-1-yl)pyrazolo[1,5-a][1,3,5]triazin-4-amine] |
| 0.00409 | 7.44 | 4.94 | COC(=O)C1CCN(c2nc(NCc3nc4ccccc4[nH]3)n3ncc(Br)c3n2)CC1 [Example 63, methyl 1-(4-{[(1H-benzimidazol-2-yl)methyl]amino}-8-bromopyrazolo[1,5-a][1,3,5]triazin-2-yl)piperidine-4-carboxylate] |
| 0.000469 | 8.33 | 6.25 | Fc1cccc(-c2cnc(CNc3nc(N4CCOCC4)nc4c(Br)cnn34)[nH]2)c1 [Example 79, 8-bromo-N-{[5-(3-fluorophenyl)-1H-imidazol-2-yl]methyl}-2-(morpholin-4-yl)pyrazolo[1,5-a][1,3,5]triazin-4-amine] |
| 0.000274 | 8.75 | – | CCc1cnn2c(NCc3nc4c(F)c(F)ccc4[nH]3)nc(N3CCN(C)CC3)nc12.O=CO [Example 435, formic acid N-[(4,5-difluoro-1H-benzimidazol-2-yl)methyl]-8-ethyl-2-(4-methylpiperazin-1-yl)pyrazolo[1,5-a][1,3,5]triazin-4-amine] |
| – | – | < 4.70 | CC(C)c1cnn2c(NCc3nc4ccccc4[nH]3)nc(N(C)C)nc12 [Example 3, N^4-[(1H-benzimidazol-2-yl)methyl]-N^2,N^2-dimethyl-8-(propan-2-yl)pyrazolo[1,5-a][1,3,5]triazine-2,4-diamine] |
| 0.0117 | 7.31 | 6.21 | OC[C@@H]1CCCCN1c1nc(NCc2nnc(-c3ccccc3)[nH]2)n2ncc(Br)c2n1 [Example 70, [(2S)-1-(8-bromo-4-{[(5-phenyl-4H-1,2,4-triazol-3-yl)methyl]amino}pyrazolo[1,5-a][1,3,5]triazin-2-yl)piperidin-2-yl]methanol] |
| 0.0173 | 7.00 | 5.57 | c1ccc(-c2nnc(CNc3nc(N4CCOCC4)nc4c(C5CC5)cnn34)[nH]2)cc1 [Example 93, 8-cyclopropyl-2-(morpholin-4-yl)-N-[(5-phenyl-4H-1,2,4-triazol-3-yl)methyl]pyrazolo[1,5-a][1,3,5]triazin-4-amine] |
| 0.0196 | 6.98 | < 4.24 | Fc1cccc(-c2cnn3c(NCc4nc5ccccc5[nH]4)nc(N4CCOCC4)nc23)c1 [Example 91, N-[(1H-benzimidazol-2-yl)methyl]-8-(3-fluorophenyl)-2-(morpholin-4-yl)pyrazolo[1,5-a][1,3,5]triazin-4-amine] |
| – | 6.51 | < 4.70 | FC(F)(F)Oc1ccccc1-c1nnc(CNc2nc(N3CCOCC3)nc3c(Br)cnn23)[nH]1 [Example 74, 8-bromo-2-(morpholin-4-yl)-N-({5-[2-(trifluoromethoxy)phenyl]-4H-1,2,4-triazol-3-yl}methyl)pyrazolo[1,5-a][1,3,5]triazin-4-amine] |
| 0.00116 | 7.85 | 5.87 | FC(F)(F)c1ccccc1-c1cnc(CNc2nc(N3CCOCC3)nc3c(Br)cnn23)[nH]1 [Example 88, 8-bromo-2-(morpholin-4-yl)-N-({5-[2-(trifluoromethyl)phenyl]-1H-imidazol-2-yl}methyl)pyrazolo[1,5-a][1,3,5]triazin-4-amine] |
| – | 8.16 | – | Fc1ccc2[nH]c(CNc3nc(N4CCOCC4)nc4c(-c5cnn(C(F)F)c5)cnn34)nc2c1F [Example 422, N-[(4,5-difluoro-1H-benzimidazol-2-yl)methyl]-8-[1-(difluoromethyl)-1H-pyrazol-4-yl]-2-(morpholin-4-yl)pyrazolo[1,5-a][1,3,5]triazin-4-amine] |
| 0.000972 | 8.35 | – | CN1CCN(c2nc(NCc3nc4cc(Cl)c(Cl)cc4[nH]3)n3ncc(C4CC4)c3n2)CC1 [Example 305, 8-cyclopropyl-N-[(5,6-dichloro-1H-benzimidazol-2-yl)methyl]-2-(4-methylpiperazin-1-yl)pyrazolo[1,5-a][1,3,5]triazin-4-amine] |
| 0.00157 | 8.02 | – | CN1CCN(c2nc(NCc3nc4cc(C(F)(F)F)ccc4[nH]3)n3ncc(C4CC4)c3n2)CC1 [Example 313, 8-cyclopropyl-2-(4-methylpiperazin-1-yl)-N-{[5-(trifluoromethyl)-1H-benzimidazol-2-yl]methyl}pyrazolo[1,5-a][1,3,5]triazin-4-amine] |
| – | 6.88 | – | O[C@@H]1CCN(c2nc(NCc3nc4ccccc4[nH]3)n3ncc(Br)c3n2)C1 [Example 202, (3R)-1-(4-{[(1H-benzimidazol-2-yl)methyl]amino}-8-bromopyrazolo[1,5-a][1,3,5]triazin-2-yl)pyrrolidin-3-ol] |
| – | 6.48 | < 5.24 | Clc1ccccc1-c1nnc(CNc2nc(N3CCOCC3)nc3c(Br)cnn23)[nH]1 [Example 69, 8-bromo-N-{[5-(2-chlorophenyl)-4H-1,2,4-triazol-3-yl]methyl}-2-(morpholin-4-yl)pyrazolo[1,5-a][1,3,5]triazin-4-amine] |
| – | 6.47 | 5.00 | COC(=O)C1CCN(c2nc(NCc3nnc(-c4ccccc4)[nH]3)n3ncc(Br)c3n2)CC1 [Example 77, methyl 1-(8-bromo-4-{[(5-phenyl-4H-1,2,4-triazol-3-yl)methyl]amino}pyrazolo[1,5-a][1,3,5]triazin-2-yl)piperidine-4-carboxylate] |
| 0.0111 | – | 5.22 | CC(C)c1cnn2c(NCc3nc4ccccc4[nH]3)nc(N3CCOCC3)nc12 [Example 1, N-[(1H-benzimidazol-2-yl)methyl]-2-(morpholin-4-yl)-8-(propan-2-yl)pyrazolo[1,5-a][1,3,5]triazin-4-amine] |

— patent US20230117034A1, “PYRAZOLOTRIAZINES” (Bayer Aktiengesellschaft, priority 2019, published 2023)
